Measured values as given in US11648254B2 (Kumquat Biosciences Inc., priority 2021, dated 2023).
Where two headings read alike, the source gives them in different places.

Columns and labels:
[1] = target: SOS1 (Homo sapiens (Human), UniProt Q07889); assay: Ras-SOS interaction assay (HTRF); type: biochemical
[2] = test system: ERK phosphorylation (p-ERK 1/2 Thr202/Tyr204) in MIA PaCa-2 or NCI-H1975 cells; assay: ERK phosphorylation assay (AlphaLISA p-ERK 1/2); type: cell-based; conditions: MIA PaCa-2 cells or EGFR mutant NCI-H1975 cells; read-out: IC50 for the inhibition of ERK phosphorylation
Procedure: MIA PaCa-2 cells (ATCC CRL-1420) expressing K-Ras G12C is grown in DMEM/Ham's F12 medium supplemented with 10% fetal calf serum, glutamine and ˜2.5% horse serum. Alternatively, other cell lines with aberrant Ras signaling output can be utilized. Non-limiting exemplary cell lines include NCI-H358 and H1975. Cells are plated in 96-well plates at a concentration of 40,000 cells/well and allowed to attach for at least 8 hours. Following, diluted solutions of test inhibitor compounds are added to the cell culture. After ˜2 hours of incubation, the medium is removed and lysis buffer from AlphaLISA® SureFire® Ultra™ p-ERK 1/2 (Thr202/Tyr204) assay kit (Perkin Elmer ALSU-PERK-A10K) is added to the cells. The plate is agitated for 10 min at room temperature and 10 μL of the lysate is transferred to a 384-well Optiplate™ (Perkin Elmer) for assay. Thereafter ˜5 μL of Acceptor Mix from the p-ERK AlphaLISA assay kit is added to wells and plate is sealed with adhesive film. The samples are incubated for one hour at room temperature. Following, 5 μL of Donor Mix is added to the wells and plate is re-sealed with adhesive film, and incubated for one hour at room temperature. The plate is then read on a multimode microplate reader (e.g., SPARK©Tecan) equipped with Alpha detection module. The data can be fitted to four-parameter dose-response curve using Prism version 9 (GraphPad) to calculate an IC50 for the inhibition of ERK phosphorylation. […] 355, 332, 366, 216, 264, 356, 266, in an ERK phosphorylation assay utilizing either MIA PaCa-2 cells (ATCC CRL-1420) or EGFR mutant cell line (NCI-H1975 (ATCC CRL-5908)).

[3] = test system: MIA PaCa-2 cells (K-Ras G12C); assay: Ras-SOS cellular growth inhibition assay (CellTiter-Glo, 3D); type: cell-based; conditions: Homo sapiens
Outline: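 Growth read by CellTiter-Glo luminescence about 5 days after dosing with 3-fold dilutions (9 points), added one day post-seeding. Cells: MIA PaCa-2, 3D culture on ultra-low-attachment surface, medium DMEM/Ham's F12 plus 10% FCS and 2.5% horse serum; IC50 by four-parameter fit.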

[4] = test system: NCI-H1975 cells (EGFR T790M L858R); assay: EGFR-SOS cellular inhibition assay (CellTiter-Glo, 3D); type: cell-based; conditions: Homo sapiens
[5] = In vitro plasma protein binding (PPB); type: in vitro ADME; conditions: percentage of free/unbound compound
[6] = Metabolic (microsomal) stability assay; type: in vitro ADME; conditions: mouse liver microsomes, T1/2; read-out: DMPK-invitro-metabolic Stability (Mouse T1/2)
Description: Example 12: Metabolic (Microsomal) Stability Assay

SOS1, sequence (Q07889 564-1049): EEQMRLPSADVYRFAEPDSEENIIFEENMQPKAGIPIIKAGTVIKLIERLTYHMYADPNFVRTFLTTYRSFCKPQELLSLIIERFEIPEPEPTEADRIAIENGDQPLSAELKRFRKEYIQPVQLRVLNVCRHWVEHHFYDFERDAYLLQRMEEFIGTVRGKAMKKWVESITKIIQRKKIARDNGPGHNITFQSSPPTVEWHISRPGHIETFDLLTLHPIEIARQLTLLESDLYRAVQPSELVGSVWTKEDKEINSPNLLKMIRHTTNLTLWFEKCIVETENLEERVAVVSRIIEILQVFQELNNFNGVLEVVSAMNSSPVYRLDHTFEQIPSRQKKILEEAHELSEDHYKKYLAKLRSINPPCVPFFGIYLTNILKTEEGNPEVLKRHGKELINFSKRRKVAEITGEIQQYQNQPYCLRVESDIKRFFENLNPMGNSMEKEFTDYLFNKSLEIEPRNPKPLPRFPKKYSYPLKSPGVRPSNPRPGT

**Q.** Which results are given for `COc1nc2nc(C)nc(N[C@H](C)c3cccc(C(F)(F)[C@@H](C)O)c3)c2cc1C1(C#N)CC1` [Compound 366, 1-(4-(((R)-1-(3-((R)-1,1-difluoro-2-hydroxypropyl)phenyl)ethyl)amino)-7-methoxy-2-methylpyrido[2,3-d]pyrimidin-6-yl)cyclopropane-1-carbonitrile]?
**A.** IC50 ([1]; K-RasG13D utilized, read-out: IC50 inhibition of SOS): < 100 nM; IC50 ([1]; K-RasG13D, read-out: IC50 value against SOS1): < 50 nM; IC50 [2]: < 1000 nM; IC50 ([3]; MIA PaCa-2, 120 h, MIA PaCa-2, 3D proliferation, about 5 days, read-out: Bio-Cell-Prolif-3D (MiaPaca2 IC50)): ≤ 1000 nM; IC50 ([3]; MIA PaCa-2, MIA PaCa-2, read-out: IC50 in inhibiting MIA PaCa-2 cell growth): < 500 nM; IC50 ([4]; 120 h, NCI-H1975, 3D proliferation, about 5 days, read-out: Bio-Cell-Prolif-3D (H1975 IC50)): ≤ 1000 nM; IC50 ([4]; NCI-H1975, EGFR T790M L858R, read-out: IC50 in inhibiting growth of NCI-H1975 cell line): < 500 nM; DMPK-invitro-PPB (Mouse Unbound) [%] [5]: 1.32%; half-life [6]: 25.7 min
